# Source: patent US20250346605A1, “NEW DERIVATIVES FOR TREATING TRPM3 MEDIATED DISORDERS” (Katholieke Universiteit Leuven, priority 2022, published 2025)
# Target: T1, mouse TRPM3α2 (mTRPM3) ion channel (Mus musculus, UniProt J9SQF3)
# T1 construct: expressed in transfected cells; host or cells: Flp-In HEK293
# Assay: TRPM3 ion channel driven Ca2+ uptake (Fluo-4 AM assay), PS-stimulated overexpressing HEK293 cells
# Format: cell-based
# Settings: flip-in HEK293 overexpressing TRPM3, stimulated with Pregnenolone sulfate (PS) 50 μM, activity ranges A, B, C
# Procedure: In order to monitor the inhibition of the mouse TRPM3α2 (mTRPM3) ion channel by the compounds of the invention, a cellular system making use of an mTRPM3alpha2 or hTRPM3 overexpressing cell line (flip-in HEK293) was used. The TRPM3 channel was stimulated/opened with Pregnenolone sulfate (PS) (50 μM) which results in Ca^2+ influx.
# For mTRPM3, the intracellular Ca^2+ was measured with a Calcium responsive dye, Fluor-4 AMV ester (Invitrogen). Cells were cultured until a confluence of 80-90%, washed with Versene (Invitrogen) and detached from the surface by a short incubation with 0.05% Trypsin (Invitrogen). The trypsination process was stopped by the addition of complete cell culture medium (DMEM, glutamax, 10% FCS, NEAA, Pen-Strep). Cells were collected and resuspended in Krebs buffer without Calcium at RT.
# Prior the cell seeding (±2000 cells/well into a black, 384 well plate (Greiner)) the diluted compound was added in the assay plate, together with the PS dissolved in Krebs buffer containing Calcium. […] Directly after cell addition the plates were read on an Envision fluorescence reader (Perkin Elmer) by an Excitation of 485 nm and emission at 535 nm.
# Channel inhibition was calculated compared to a non-PS stimulated control versus a condition stimulated with PS (50 μM) with vehicle. The ability of the compounds of the invention to inhibit this activity was determined as: Percentage inhibition=[1-((RFU determined for sample with test compound present−RFU determined for sample with positive control inhibitor) divided by (RFU determined in the presence of vehicle−RFU determined for sample with positive control inhibitor))]*100.
# The activities of the Example compounds tested are depicted in the table below. The activity ranges A, B and C refer to IC50 values in the Fluo-4 AM assay as follows: “A”: IC50<1 μM; “B”: 1 μM≤IC50≤20 μM and “C”: IC50>20 μM
# T1 sequence (J9SQF3 1-1709 isoform J9SQF3-12): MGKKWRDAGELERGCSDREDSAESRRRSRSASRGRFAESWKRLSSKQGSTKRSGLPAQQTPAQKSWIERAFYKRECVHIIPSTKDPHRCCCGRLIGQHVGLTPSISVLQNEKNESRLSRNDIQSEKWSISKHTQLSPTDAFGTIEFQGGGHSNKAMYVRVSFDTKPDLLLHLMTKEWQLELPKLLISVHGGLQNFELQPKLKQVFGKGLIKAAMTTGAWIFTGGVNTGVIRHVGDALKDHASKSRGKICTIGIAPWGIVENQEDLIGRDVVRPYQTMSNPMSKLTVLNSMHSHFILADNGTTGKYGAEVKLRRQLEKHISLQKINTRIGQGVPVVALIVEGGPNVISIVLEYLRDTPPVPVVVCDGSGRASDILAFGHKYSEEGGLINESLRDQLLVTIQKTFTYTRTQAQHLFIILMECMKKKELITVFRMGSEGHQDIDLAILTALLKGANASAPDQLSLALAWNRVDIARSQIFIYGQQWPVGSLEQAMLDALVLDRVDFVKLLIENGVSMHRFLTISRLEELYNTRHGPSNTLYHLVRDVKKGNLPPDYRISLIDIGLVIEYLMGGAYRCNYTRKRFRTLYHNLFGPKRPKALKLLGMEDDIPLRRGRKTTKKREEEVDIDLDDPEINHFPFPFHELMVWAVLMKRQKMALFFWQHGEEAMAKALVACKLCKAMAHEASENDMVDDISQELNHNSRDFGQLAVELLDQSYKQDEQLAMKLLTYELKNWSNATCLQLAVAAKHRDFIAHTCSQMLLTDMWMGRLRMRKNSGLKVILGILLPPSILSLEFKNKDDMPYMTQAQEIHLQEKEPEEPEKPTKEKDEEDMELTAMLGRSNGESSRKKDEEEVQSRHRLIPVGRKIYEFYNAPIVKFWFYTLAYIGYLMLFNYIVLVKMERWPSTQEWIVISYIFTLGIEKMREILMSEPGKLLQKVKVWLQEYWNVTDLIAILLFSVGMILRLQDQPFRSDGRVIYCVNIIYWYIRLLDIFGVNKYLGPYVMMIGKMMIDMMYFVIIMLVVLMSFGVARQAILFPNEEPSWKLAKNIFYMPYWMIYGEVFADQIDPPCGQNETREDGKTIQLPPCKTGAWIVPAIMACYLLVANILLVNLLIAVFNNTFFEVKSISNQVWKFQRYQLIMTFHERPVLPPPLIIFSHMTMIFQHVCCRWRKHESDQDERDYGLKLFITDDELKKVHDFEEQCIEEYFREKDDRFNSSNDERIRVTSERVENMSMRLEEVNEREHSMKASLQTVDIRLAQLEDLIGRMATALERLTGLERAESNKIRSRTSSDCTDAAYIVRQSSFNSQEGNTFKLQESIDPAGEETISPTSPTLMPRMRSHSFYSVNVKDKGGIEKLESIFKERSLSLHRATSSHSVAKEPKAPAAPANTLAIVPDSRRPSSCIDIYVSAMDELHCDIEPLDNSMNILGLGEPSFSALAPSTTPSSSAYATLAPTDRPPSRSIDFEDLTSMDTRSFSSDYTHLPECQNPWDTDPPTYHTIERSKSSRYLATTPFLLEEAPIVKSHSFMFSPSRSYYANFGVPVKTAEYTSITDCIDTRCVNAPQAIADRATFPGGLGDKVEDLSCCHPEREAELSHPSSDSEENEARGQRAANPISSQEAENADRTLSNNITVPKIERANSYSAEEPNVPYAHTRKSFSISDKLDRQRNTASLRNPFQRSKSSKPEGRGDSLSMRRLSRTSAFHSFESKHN
row,SMILES,IC50
1,"Cc1oc2cnc(OCc3ccccc3)cc2c1C(=O)NC1(CO)CCOCC1 [Cpd 016, 5-(benzyloxy)-N-[4-(hydroxymethyl)oxan-4-yl]-2-methylfuro[2,3-c]pyridine-3-carboxamide]",> 20 µM
2,"Cc1ncsc1COc1cc2c(C(=O)NC3(C(N)=O)COC3)c(C)oc2cn1 [Cpd 019, N-(3-carbamoyloxetan-3-yl)-2-methyl-5-[(4-methyl-1,3-thiazol-5-yl)methoxy]furo[2,3-c]pyridine-3-carboxamide]",> 20 µM
3,"Cc1oc2cnc(OCc3cccnc3C(F)(F)F)cc2c1C(=O)N[C@H]1CCNCC1(F)F [Cpd 026, N-[(4S)-3,3-difluoropiperidin-4-yl]-2-methyl-5-{[2-(trifluoromethyl)pyridin-3-yl]methoxy}furo[2,3-c]pyridine-3-carboxamide]",1 to 20 µM
4,"Cc1oc2cnc(OCc3ccccn3)cc2c1C(=O)NC1CCN(CCO)C1=O (stereo not shown) [Cpd 027, N-[1-(2-hydroxyethyl)-2-oxopyrrolidin-3-yl]-2-methyl-5-[(pyridin-2-yl)methoxy]furo[2,3-c]pyridine-3-carboxamide]",1 to 20 µM
5,"Cc1ncsc1COc1cc2c(C(=O)NC3(CO)CCC3)c(C)oc2cn1 [Cpd 028, N-[1-(hydroxymethyl)cyclobutyl]-2-methyl-5-[(4-methyl-1,3-thiazol-5-yl)methoxy]furo[2,3-c]pyridine-3-carboxamide]",1 to 20 µM
6,"Cc1oc2cnc(OCc3ccccn3)cc2c1C(=O)NC1(CO)CCC1 [Cpd 029, N-[1-(hydroxymethyl)cyclobutyl]-2-methyl-5-[(pyridin-2-yl)methoxy]furo[2,3-c]pyridine-3-carboxamide]",1 to 20 µM
7,"Cc1ncsc1COc1cc2c(C(=O)NC3(CO)CC3)c(C)oc2cn1 [Cpd 030, N-[1-(hydroxymethyl)cyclopropyl]-2-methyl-5-[(4-methyl-1,3-thiazol-5-yl)methoxy]furo[2,3-c]pyridine-3-carboxamide]",> 20 µM
8,"Cc1oc2cnc(OCc3ccccn3)cc2c1C(=O)NC1(CO)CC1 [Cpd 031, N-[1-(hydroxymethyl)cyclopropyl]-2-methyl-5-[(pyridin-2-yl)methoxy]furo[2,3-c]pyridine-3-carboxamide]",> 20 µM
9,"COc1ncccc1COc1cc2c(C(=O)NC3(CO)CC3)c(C)oc2cn1 [Cpd 032, N-[1-(hydroxymethyl)cyclopropyl]-5-[(2-methoxypyridin-3-yl)methoxy]-2-methylfuro[2,3-c]pyridine-3-carboxamide]",> 20 µM
10,"Cc1ncsc1COc1cc2c(C(=O)NC3(CO)COC3)c(C)oc2cn1 [Cpd 033, N-[3-(hydroxymethyl)oxetan-3-yl]-2-methyl-5-[(4-methyl-1,3-thiazol-5-yl)methoxy]furo[2,3-c]pyridine-3-carboxamide]",1 to 20 µM
11,"Cc1oc2cnc(OCc3ccccn3)cc2c1C(=O)NC1(CO)COC1 [Cpd 034, N-[3-(hydroxymethyl)oxetan-3-yl]-2-methyl-5-[(pyridin-2-yl)methoxy]furo[2,3-c]pyridine-3-carboxamide]",> 20 µM
12,"Cc1ncsc1COc1cc2c(C(=O)NC3(CO)CCOCC3)c(C)oc2cn1 [Cpd 035, N-[4-(hydroxymethyl)oxan-4-yl]-2-methyl-5-[(4-methyl-1,3-thiazol-5-yl)methoxy]furo[2,3-c]pyridine-3-carboxamide]",1 to 20 µM

# Other lines, results leading:
row,IC50,SMILES
1,1 to 20 µM,"Cc1oc2cnc(OCc3ccccn3)cc2c1C(=O)NC(C)(C)C(N)=O [Cpd 012, 2-methyl-2-({2-methyl-5-[(pyridin-2-yl)methoxy]furo[2,3-c]pyridin-3-yl}formamido)propanamide]"
2,1 to 20 µM,"Cc1oc2cnc(OCc3ccccc3F)cc2c1C(=O)NC1(CO)CC1 [Cpd 018, 5-[(2-fluorophenyl)methoxy]-N-[1-(hydroxymethyl)cyclopropyl]-2-methylfuro[2,3-c]pyridine-3-carboxamide]"
3,1 to 20 µM,"Cc1oc2cnc(OCc3ccccn3)cc2c1C(=O)NC1(C(N)=O)COC1 [Cpd 020, N-(3-carbamoyloxetan-3-yl)-2-methyl-5-[(pyridin-2-yl)methoxy]furo[2,3-c]pyridine-3-carboxamide]"
4,1 to 20 µM,"Cc1oc2cnc(OCCc3ccccc3)cc2c1C(=O)NC1CNCC1(F)F (stereo not shown) [Cpd 022-En1, N-(4,4-difluoropyrrolidin-3-yl)-2-methyl-5-(2-phenylethoxy)furo[2,3-c]pyridine-3-carboxamide]"
5,1 to 20 µM,"Cc1ncsc1CCOc1cc2c(C(=O)NC3CNCC3(F)F)c(C)oc2cn1 (stereo not shown) [Cpd 023-En1, N-(4,4-difluoropyrrolidin-3-yl)-2-methyl-5-[2-(4-methyl-1,3-thiazol-5-yl)ethoxy]furo[2,3-c]pyridine-3-carboxamide]"
6,1 to 20 µM,"Cc1oc2cnc(OCc3ccccn3)cc2c1C(=O)NC1(C(N)=O)CCOCC1 [Cpd 024, N-(4-carbamoyloxan-4-yl)-2-methyl-5-[(pyridin-2-yl)methoxy]furo[2,3-c]pyridine-3-carboxamide]"
7,< 1 µM,"Cc1oc2cnc(OCc3cccnc3C(F)(F)F)cc2c1C(=O)N[C@@H]1CCNCC1(F)F [Cpd 025, N-[(4R)-3,3-difluoropiperidin-4-yl]-2-methyl-5-{[2-(trifluoromethyl)pyridin-3-yl]methoxy}furo[2,3-c]pyridine-3-carboxamide]"
